According to US20110082177A1, “N'-NITROXYALKYLNICOTINAMIDES FOR THE TREATMENT OF CARDIOVASCULAR DISEASES” (priority 2008, published 2011):

What was measured:
[1] = Binding to heparin, absorption method; conditions: compound 100 μM, heparin immobilised on Sepharose 25 mg/ml
Experimental: The absorption method consisted in comparing the absorption spectrum of an aqueous solution of the tested compound with the absorption spectrum of the same solution after its incubation with Sepharose immobilised heparin as a glycosaminoglycan mimicking the glycosaminoglycan receptor. The absorption spectra were recorded using a Perkin Elmer Lambda 40 spectrophotometer. The following reagents were prepared prior to the experiment: an aqueous solution of the tested compound of Example 1, namely 1-methyl-N′-(2-nitroxyethyl)nicotinamide chloride (MNIC^+Cl^−), at a concentration of 100 μM, an aqueous suspension of heparin immobilised on Sepharose at 25 mg/ml, and a solution of MNIC^+Cl^− in an aqueous suspension of heparin having the same concentrations in both the tested compound and heparin as mentioned above. Following the initial incubation of the solution of the tested compound with heparin, it was centrifuged for 6 minutes at 13,000 rpm. Then supernatant solutions above the precipitate of heparin were separated and the spectra of the solutions were recorded at the wavelength range of 200-600 nm.
The degree of binding of MNIC^+ to heparin was determined by calculating the areas under the absorption curves of the compound before and after contact with heparin, using the following relationship: […]

[2] = Binding to heparin, radiation method (pulse radiolysis); conditions: water-soluble heparin 10 μM
Experimental: The experiment consisted in studying the effect of the presence of heparin on the observed rate of scavenging the hydrated electron by the MNIC^+ cation. The studies were carried out by pulse radiolysis, using an Elektronika ELU-6E linear electron accelerator (at the Institute of Applied Radiation Chemistry, Technical University of Lodz, Poland) having an electron beam energy of 6-8 MeV, as an ionising-radiation source. A solution of water-soluble heparin at a concentration of 10 μM was used in the experiment. […]
Based on the recorded kinetic traces of decay of the hydrated electron in the presence of the MNIC^+Cl^− solutions at various concentrations, the values of the pseudo-first order rate constants were determined. The value of the second-order rate constant for the investigated reaction was determined from the slope of the linear dependence of the above-determined rate constants versus concentration. […] Then, based on the determined second-order reaction rate constant and the observed rate constant for decay of the hydrated electron in the presence of heparin and MNIC^+, the degree of binding of the tested compound to heparin was determined using the following relationship: […]

[3] = Scavenging of the hydrated electron by pulse radiolysis; format: physicochemical; conditions: no heparin added, λ=720 nm
Experimental: The experiment consisted in studying the effect of the presence of heparin on the observed rate of scavenging the hydrated electron by the MNIC^+ cation. The studies were carried out by pulse radiolysis, using an Elektronika ELU-6E linear electron accelerator (at the Institute of Applied Radiation Chemistry, Technical University of Lodz, Poland) having an electron beam energy of 6-8 MeV, as an ionising-radiation source. A solution of water-soluble heparin at a concentration of 10 μM was used in the experiment. […] Based on the recorded kinetic traces of decay of the hydrated electron in the presence of the MNIC^+Cl^− solutions at various concentrations, the values of the pseudo-first order rate constants were determined. The value of the second-order rate constant for the investigated reaction was determined from the slope of the linear dependence of the above-determined rate constants versus concentration. […] Then, based on the determined second-order reaction rate constant and the observed rate constant for decay of the hydrated electron in the presence of heparin and MNIC^+, the degree of binding of the tested compound to heparin was determined using the following relationship: […]

isolated rat aorta = assay: Vasodilating effect on phenylephrine contracted isolated rat aortal rings; conditions: isolated rat aorta with preserved endothelial function; concentrations range from tens to hundreds μmol/l
Experimental: (§1) The vasodilating effect of MNIC^+Cl^− in aqueous solutions on isolated rat aorta was studied in the conditions close to physiological ones. 3-5 mm aortal rings with preserved endothelial function placed in a set of 6 containers a 5 ml containing the Krebs-Henseleit buffer constantly aerated with 5% CO2 in O2 and thermostated at 37° C. were suspended between two hooks connected to the force transducer for recording the ring contraction. Then, following the constriction induced by phenylephrine, the concentration-dependent vasodilating effect of MNIC^+Cl^− was investigated by measurement of relaxation of phenylephrine contracted aortal rings.

[4] = tested on: soluble guanyl cyclase (sGC); assay: Effect of sGC inhibitor ODQ on vasodilatating activity in isolated rat aortal rings
Experimental: as §1
(§2) The experiments explaining the mechanisms responsible for vasodilation induced by MNIC^+Cl^− were carried out in the same system of isolated vascular vessels. In order to determine the contribution of sGC and KATP channels in the vasodilating activity of the compound, the effects of an inhibitor of ATP-dependent potassium channels—glibenclamide (GLB) at a concentration of 10 μM, and an inhibitor of soluble guanyl cyclase (sGC) 1H-[1,2,4]-oxadiazole[4,3-a]quinoxalin-1-one (ODQ) at a concentration of 10 μM on this vasodilating activity were investigated in two set of experiments. In these experiments, MNIC^+Cl^− was used at the concentrations causing about 80-90% vasodilation, as determined in the experiment described above. […]

[5] = tested on: ATP-dependent potassium channels; assay: Effect of potassium channel inhibitor GLB on vasodilatating activity in isolated rat aortal rings
Experimental: as §1, §2

[6] = Ability to release NO by EPR method; conditions: preliminary investigations
Experimental: Preliminary investigations of the ability of MNIC^+Cl^− to release NO were also performed using EPR (Electron Paramagnetic Resonance) method. The results of these studies confirmed that MNIC^+Cl^− releases NO, and most likely the vasodilating activity of the compound is a consequence of the stimulation of sGC by NO thus released.

| Structure (SMILES) | degree of binding to heparin [1] [%] | degree of binding to heparin [2] [%] | second-order rate constant for the reaction of hydrated electron with the MNIC+ cation [3] [M⁻¹ s⁻¹] | vasodilating activity (relaxation of phenylephrine contracted aortal rings) (isolated rat aorta) | effect of further addition of ODQ after GLB pre-incubation on vasodilatating activity ([4]; ODQ 10 μM added after GLB 10 μM) | effect of pre-incubation with ODQ on vasodilatating activity ([4]; ODQ 10 μM, MNIC+Cl− at concentrations causing about 80-90% vasodilation) | effect of addition of GLB after ODQ pre-incubation on reversal of the ODQ effect ([5]; GLB 10 μM added after ODQ 10 μM) | effect of pre-incubation with GLB on vasodilatating activity ([5]; GLB 10 μM, MNIC+Cl− at concentrations causing about 80-90% vasodilation) | ability to release NO [6] |
| --- | --- | --- | --- | --- | --- | --- | --- | --- | --- |
| C[n+]1cccc(C(=O)NCCO[N+](=O)[O-])c1.[Cl-] [MNIC^+Cl^−, 1-Methyl-N′-(2-nitroxyethyl)nicotinamide chloride] | 30 | 47 | 4.17e+10 to 1e+11 | concentration-dependent vasodilating activity | inhibition of vasodilatating activity | inhibited vasodilatating activity | no further influence | had no influence | releases NO |
| C[n+]1cccc(C(N)=O)c1 [1-methylnicotinamide, reference compound] | 50 | 39 |  |  |  |  |  |  |  |
